Reference: patent US6858648B2, “Laetispicine and laetispicine analogues, methods of use and preparation” (Fudan University, priority 2002, dated 2005)

How the values were obtained:
mouse [1] = experiment: Mouse acetic acid squirming method; format: in vivo; conditions: for Squirming X ± SE: dose 20 mg/kg, 1 hour before 0.2 ml 1% acetic acid into abdominal cavity, squirmings counted over 10 minutes, male mice; for inflammation and pain relieving effect compared with aspirin: 20 mg/kg each, mouse acetic acid squirming
Description: The pain and inflammation relieving effect of Laetispicine has been studied by the mouse acetic acid squirming method. In this study, 30 male mice were selected; each of them weighed 20 grams. These mice were divided randomly into 3 groups: Laetispicine group (10 mice), aspirin group (10 mice), and control group (10 mice). Laetispicine of 20 milligram/kilogram body weight in vehicle solution was given to each of the ten mice in Laetispicine group. For a positive control, aspirin of 20 milligram/kilogram body weight in vehicle solution was given to each of the ten mice in aspirin group. Vehicle solution only was given to ten mice in control group (negative control group). One hour later, each mouse was given 0.2 milliliter of 1% acetic acid solution by injection to its abdominal cavity. After the mouse squirmed first time, every squirming of each of the mouse was counted in a period of 10 minutes.

mouse [2] = experiment: Mouse forced swimming experiment; format: in vivo; conditions: for Motionless Time (sec.) X ± SE: 1 hour after dosing, recorded over 4 minutes after 2 minutes adaptation, 10 mice per group; for anti-depression effect compared with Fluoxetine (Prozac): mouse forced swimming, relative to Fluoxetine
Description: Mouse forced swimming experiment is by far the best animal model to screen anti-depression drugs. The experiment is designed to create a despaired situation for a mouse by confining the mouse in a container filled with water. Mouse in water will swim to safety. When the mouse cannot find a way out after it tried in the water in the container, it despaired of swimming. There is psychological difference of different mice in the situation. A calm mouse is still swimming and trying to find a way out of the container, while a despaired mouse swims relatively less (moves less). A depressed mouse despairs easily. The more depressed the mouse, the severer the despair.
In this experiment, sixty mice were divided into 6 groups (10 mice in each group). (Referring to Table 1 and FIG. 2) Each mouse in experiment group 1 (Laetispicine 1) was given Laetispicine 50 milligram/kilogram body weight, each mouse in experiment group 2 (Laetispicine 2) was given Laetispicine 20 milligram/kilogram body weight, each mouse in experiment group 3 (Laetispicine 3) was given Laetispicine 10 milligram/kilogram body weight and each mouse in experiment group 4 (Laetispicine 4) was given Laetispicine 5 milligram/kilogram body weight. Fluoxetine (Prozac) was given 50 milligram/kilogram body weight to each mouse of positive control group (Fluoxetine), and placebo was given to each mouse of negative control group.
After receiving the drugs (or placebo) 1 hour later, mice were put into a glass container with a long and narrow opening. The dimension of the container is 30 cm height, filled with water to 15 cm deep.

| Structure (SMILES) | Squirming X ± SE (mouse [1]) | Motionless Time (sec.) X ± SE (mouse [2]; dose 50 mg/kg) | effect on mouse depression (in words) (mouse [2]; Table 1 and FIG. 2, 5-50 mg/kg) | Motionless Time (sec.) X ± SE (mouse [2]; dose 5 mg/kg) | Motionless Time (sec.) X ± SE (mouse [2]; dose 10 mg/kg) | Motionless Time (sec.) X ± SE (mouse [2]; dose 20 mg/kg) | anti-depression effect compared with Fluoxetine (Prozac) (mouse [2]) | anti-depression effect compared with Fluoxetine (Prozac) (mouse [2]; listed as Lactispicine) | inflammation and pain relieving effect compared with aspirin (mouse [1]) | inflammation and pain relieving effect compared with aspirin (mouse [1]; listed as Lactispicine) |
| --- | --- | --- | --- | --- | --- | --- | --- | --- | --- | --- |
| CC(=O)Oc1ccccc1C(=O)O [Aspirin, reference compound] | 16.8 ± 3.43 |  |  |  |  |  |  |  |  |  |
| CNCCC(Oc1ccc(C(F)(F)F)cc1)c1ccccc1 (stereo not drawn) [Fluoxetine, reference compound] |  | 113.44 ± 10.10 s |  |  |  |  |  |  |  |  |
| CC(C)CNC(=O)/C=C/C=C/CCC/C=C/Cc1ccc2c(c1)OCO2 [Laetispicine, N-isobutyl-11-(3,4-methylendioxyphenyl)-2E,4E,9E-undecatrienamide] | 16.7 ± 4.92 | 17.67 ± 5.33 s | significantly reduced the mouse depression | 158.78 ± 5.13 s | 131.0 ± 8.86 s | 50.11 ± 12.69 s | five times effective than that of Prozac | 5 times | equivalent to that of aspirin | equivalent to the effect of Aspirin |
